The record followed here is patent publication EP0540090A2, “Liquid cleaning compositions” (UNILEVER N.V., priority 1991, dated 1993).

Read-outs that look alike come from different tables or passages of the source.

Series [1] is described as follows: Precursor solubility in the liquid phase (2:1 nonionic surfactant blend Vista NI and Synperonic A3), by GC (TAED) and HPLC (rest).
Series [2] in a line: Storage stability of precursor and percarbonate in the non-aqueous liquid formulation of Example 1. The note with it: Example 1 formulation, after storage for 8 weeks at ambient temperature.
Experimental: The following formulation containing various types of precursors was tested for percarbonate and precursor stability:
Where [3] appears, read: 2:1 nonionic surfactant combination (Vista NI and Synperonic A3), ambient temperature.
Setting [4] is: 2:1 nonionic surfactant combination (Vista NI and Synperonic A3), ambient temperature, molar solubility multiplied by number of active groups.

Consider “2-(N,N,N-trimethylammonium)ethyl sodium 4-sulphophenyl carbonate [Compound B]”, for which, in series [1], the “% w/w dissolved” value is below 0.025 % w/w and the “mmol% active groups dissolved” value is given as below 0.08 mmol%.
`C[N+](C)(C)Cc1ccc(C(=O)Oc2ccc(S(=O)(=O)[O-])cc2)cc1` [Compound A, 1-[4-(N,N,N-trimethylammoniummethyl)benzoyloxy] benzene-4-sulphonate]: the stability precursor in series [2] is reported as 88% **). The “% w/w dissolved” value in series [1] (setting [3]) is below 0.05 % w/w. Besides, the “mmol% active groups dissolved” value in series [1] (setting [4]) is given as below 0.14 mmol%.
With `C[N+](C)(C)c1ccc(C(=O)Oc2ccc(S(=O)(=O)[O-])cc2)cc1` [Compound E], the “% w/w dissolved” value in series [1] (setting [3]) is below 0.01 % w/w. For the same molecule, the “mmol% active groups dissolved” value in series [1] (setting [4]) is below 0.03 mmol%.
